According to patent US10392391B2 (Vertex Pharmaceuticals Incorporated, priority 2012, dated 2019):

These molecules were tested against ATR kinase (full-length ATR) (Homo sapiens (Human), UniProt Q13535) (assay: ATR inhibition assay (radioactive-phosphate incorporation)). Conditions: not given.
Assay type: biochemical
Outline: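 Radiometric 33P incorporation by 5 nM full-length ATR into 800 μM target peptide with 10 μM [γ-33P]ATP, in 50 mM Tris/HCl pH 7.5, 10 mM MgCl2, 1 mM DTT, 7% DMSO, 25° C. Compound pre-incubated 10 minutes; reaction stopped after 24 hours, captured on phosphocellulose. Ki(app) from non-linear regression of initial rates.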

Chain of ATR kinase (full-length ATR) (Q13535 whole entry): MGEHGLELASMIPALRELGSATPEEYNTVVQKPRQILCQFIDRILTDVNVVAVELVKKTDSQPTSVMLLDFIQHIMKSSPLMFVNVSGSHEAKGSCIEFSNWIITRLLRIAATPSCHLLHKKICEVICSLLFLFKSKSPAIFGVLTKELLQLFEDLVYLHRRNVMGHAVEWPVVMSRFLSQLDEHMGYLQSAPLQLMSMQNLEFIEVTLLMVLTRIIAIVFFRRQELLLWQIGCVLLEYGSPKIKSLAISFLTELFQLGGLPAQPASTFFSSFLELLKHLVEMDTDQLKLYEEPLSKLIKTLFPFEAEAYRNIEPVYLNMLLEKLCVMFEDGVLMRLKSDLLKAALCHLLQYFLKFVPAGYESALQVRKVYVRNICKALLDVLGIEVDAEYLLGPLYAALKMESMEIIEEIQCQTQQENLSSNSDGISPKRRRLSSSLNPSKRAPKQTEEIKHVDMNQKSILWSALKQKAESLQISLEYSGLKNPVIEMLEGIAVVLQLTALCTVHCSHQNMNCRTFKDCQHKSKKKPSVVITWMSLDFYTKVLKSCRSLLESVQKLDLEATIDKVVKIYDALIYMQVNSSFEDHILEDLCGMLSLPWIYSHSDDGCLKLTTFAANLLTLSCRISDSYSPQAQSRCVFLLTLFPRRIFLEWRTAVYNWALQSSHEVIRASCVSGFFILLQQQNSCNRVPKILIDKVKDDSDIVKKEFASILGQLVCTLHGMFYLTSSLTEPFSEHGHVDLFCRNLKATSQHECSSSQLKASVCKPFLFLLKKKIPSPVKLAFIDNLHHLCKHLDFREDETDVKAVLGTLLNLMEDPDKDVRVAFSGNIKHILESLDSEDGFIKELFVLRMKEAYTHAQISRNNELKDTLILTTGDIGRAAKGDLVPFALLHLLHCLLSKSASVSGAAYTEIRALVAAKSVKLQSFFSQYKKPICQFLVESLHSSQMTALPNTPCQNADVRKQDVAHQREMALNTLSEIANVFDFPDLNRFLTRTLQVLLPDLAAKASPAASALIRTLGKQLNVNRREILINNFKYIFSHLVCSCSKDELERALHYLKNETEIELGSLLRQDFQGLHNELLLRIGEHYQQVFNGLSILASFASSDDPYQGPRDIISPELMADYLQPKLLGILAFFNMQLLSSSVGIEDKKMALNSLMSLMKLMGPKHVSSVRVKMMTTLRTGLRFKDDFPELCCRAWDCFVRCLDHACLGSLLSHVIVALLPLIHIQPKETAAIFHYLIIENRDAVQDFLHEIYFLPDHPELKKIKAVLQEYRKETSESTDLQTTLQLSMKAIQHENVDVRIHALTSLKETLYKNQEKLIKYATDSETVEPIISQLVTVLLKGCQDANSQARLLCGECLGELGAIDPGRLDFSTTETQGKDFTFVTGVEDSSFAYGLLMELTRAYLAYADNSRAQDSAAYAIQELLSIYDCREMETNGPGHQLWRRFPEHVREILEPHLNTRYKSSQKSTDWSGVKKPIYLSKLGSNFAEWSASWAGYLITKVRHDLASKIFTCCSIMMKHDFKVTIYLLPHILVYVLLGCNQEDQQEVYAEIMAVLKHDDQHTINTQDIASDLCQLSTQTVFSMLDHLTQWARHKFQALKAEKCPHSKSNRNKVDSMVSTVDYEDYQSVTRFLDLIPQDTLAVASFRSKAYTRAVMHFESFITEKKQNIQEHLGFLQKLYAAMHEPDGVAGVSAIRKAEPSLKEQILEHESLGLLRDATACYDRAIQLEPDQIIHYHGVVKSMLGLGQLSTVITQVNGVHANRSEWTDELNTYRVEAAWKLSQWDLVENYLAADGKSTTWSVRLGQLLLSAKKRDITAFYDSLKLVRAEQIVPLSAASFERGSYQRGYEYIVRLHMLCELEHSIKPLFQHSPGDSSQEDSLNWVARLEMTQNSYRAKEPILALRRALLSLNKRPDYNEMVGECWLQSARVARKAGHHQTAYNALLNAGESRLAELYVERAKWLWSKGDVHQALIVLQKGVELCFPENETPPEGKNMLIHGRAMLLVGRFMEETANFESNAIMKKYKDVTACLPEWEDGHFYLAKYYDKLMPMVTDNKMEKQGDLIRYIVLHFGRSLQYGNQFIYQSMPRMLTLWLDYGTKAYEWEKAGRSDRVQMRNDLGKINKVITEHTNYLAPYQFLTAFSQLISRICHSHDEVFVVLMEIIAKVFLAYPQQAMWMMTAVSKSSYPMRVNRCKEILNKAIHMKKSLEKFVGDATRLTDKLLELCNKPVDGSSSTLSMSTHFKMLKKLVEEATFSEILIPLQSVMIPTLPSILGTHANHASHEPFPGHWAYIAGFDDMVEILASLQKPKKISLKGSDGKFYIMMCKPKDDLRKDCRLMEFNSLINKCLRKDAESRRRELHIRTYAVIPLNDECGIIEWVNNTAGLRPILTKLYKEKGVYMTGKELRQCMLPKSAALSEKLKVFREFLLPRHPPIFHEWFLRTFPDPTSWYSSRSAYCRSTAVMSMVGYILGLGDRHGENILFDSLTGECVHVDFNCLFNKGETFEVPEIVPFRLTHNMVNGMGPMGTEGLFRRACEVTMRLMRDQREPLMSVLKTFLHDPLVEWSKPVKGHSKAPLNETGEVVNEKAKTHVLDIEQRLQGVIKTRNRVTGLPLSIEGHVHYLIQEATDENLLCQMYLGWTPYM

Ki	SMILES
1 to 5 µM	CNCCc1cnn(-c2ccncc2NC(=O)c2c(N)nn3cc(F)cnc23)c1 [I-N-8, 2-amino-6-fluoro-N-(4-(4-(2-(methylamino)ethyl)-1H-pyrazol-1-yl)pyridin-3-yl)pyrazolo[1,5-a]pyrimidine-3-carboxamide]
1 to 5 µM	CN(C)CCc1cnn(-c2ccncc2NC(=O)c2c(N)nn3cc(F)cnc23)c1 [I-N-9, 2-amino-N-(4-(4-(2-(dimethylamino)ethyl)-1H-pyrazol-1-yl)pyridin-3-yl)-6-fluoropyrazolo[1,5-a]pyrimidine-3-carboxamide]
1 to 5 µM	CC(C)(C)N1CCN(c2ccncc2NC(=O)c2c(N)nn3cc(Cl)cnc23)CC1 [I-N-34, 2-amino-N-(4-(4-(tert-butyl)piperazin-1-yl)pyridin-3-yl)-6-chloropyrazolo[1,5-a]pyrimidine-3-carboxamide]
1 to 5 µM	CN(C)[C@H]1CCN(c2ccncc2NC(=O)c2c(N)nn3cc(Cl)cnc23)C[C@@H]1O [I-N-35, 2-amino-6-chloro-N-(4-((3S,4S)-4-(dimethylamino)-3-hydroxypiperidin-1-yl)pyridin-3-yl)pyrazolo[1,5-a]pyrimidine-3-carboxamide]
1 to 5 µM	CN(C)CC1(O)CCN(c2ccncc2NC(=O)c2c(N)nn3cc(Cl)cnc23)CC1 [I-N-36, 2-amino-6-chloro-N-(4-(4-((dimethylamino)methyl)-4-hydroxypiperidin-1-yl)pyridin-3-yl)pyrazolo[1,5-a]pyrimidine-3-carboxamide]
1 to 5 µM	CN(C)C1CCN(c2ccncc2NC(=O)c2c(N)nn3cc(Cl)cnc23)CC1 [I-N-37, 2-amino-6-chloro-N-(4-(4-(dimethylamino)piperidin-1-yl)pyridin-3-yl)pyrazolo[1,5-a]pyrimidine-3-carboxamide]

Same assay, conditions: Ki(app), 5 nM full-length ATR, 10 μM ATP, 25° C.

Ki	SMILES
0.01 to 1 µM	COCC1CN(C(=O)C2CCN(c3c(F)cncc3NC(=O)c3c(N)nn4cc(F)cnc34)CC2)C1 [I-G-98, 2-amino-6-fluoro-N-(5-fluoro-4-(4-(3-(methoxymethyl)azetidine-1-carbonyl)piperidin-1-yl)pyridin-3-yl)pyrazolo[1,5-a]pyrimidine-3-carboxamide]
0.01 to 1 µM	CO[C@H]1CCN(C(=O)C2CCN(c3c(F)cncc3NC(=O)c3c(N)nn4cc(F)cnc34)CC2)C1 [I-G-99, (S)-2-amino-6-fluoro-N-(5-fluoro-4-(4-(3-methoxypyrrolidine-1-carbonyl)piperidin-1-yl)pyridin-3-yl)pyrazolo[1,5-a]pyrimidine-3-carboxamide]
0.01 to 1 µM	N#CCc1cnc2c(C(=O)Nc3cnccc3N3CCC(N)CC3)c(N)nn2c1 [I-N-2, 2-amino-N-(4-(4-aminopiperidin-1-yl)pyridin-3-yl)-6-(cyanomethyl)pyrazolo[1,5-a]pyrimidine-3-carboxamide]
0.01 to 1 µM	CN1CCN(c2ccncc2NC(=O)c2c(N)nn3cc(F)cnc23)CC1 [I-N-3, 2-amino-6-fluoro-N-(4-(4-methylpiperazin-1-yl)pyridin-3-yl)pyrazolo[1,5-a]pyrimidine-3-carboxamide]
0.01 to 1 µM	CC(C)N1CCN(c2ccncc2NC(=O)c2c(N)nn3cc(F)cnc23)CC1 [I-N-4, 2-amino-6-fluoro-N-(4-(4-isopropylpiperazin-1-yl)pyridin-3-yl)pyrazolo[1,5-a]pyrimidine-3-carboxamide]
0.01 to 1 µM	CN1CCN(c2c(NC(=O)c3c(N)nn4cc(F)cnc34)cncc2C2CC2)CC1 [I-N-5, 2-amino-N-(5-cyclopropyl-4-(4-methylpiperazin-1-yl)pyridin-3-yl)-6-fluoropyrazolo[1,5-a]pyrimidine-3-carboxamide]
0.01 to 1 µM	Nc1nn2cc(F)cnc2c1C(=O)Nc1cnccc1-n1ccnc1 [I-N-7, N-(4-(1H-imidazol-1-yl)pyridin-3-yl)-2-amino-6-fluoropyrazolo[1,5-a]pyrimidine-3-carboxamide]
0.01 to 1 µM	Nc1nn2cc(F)cnc2c1C(=O)Nc1cnccc1N1CCN([C@@H]2CCOC2)CC1 [I-N-10, (R)-2-amino-6-fluoro-N-(4-(4-(tetrahydrofuran-3-yl)piperazin-1-yl)pyridin-3-yl)pyrazolo[1,5-a]pyrimidine-3-carboxamide]
0.01 to 1 µM	Nc1nn2cc(F)cnc2c1C(=O)Nc1cnccc1N1CCN(C2CCOCC2)CC1 [I-N-11, 2-amino-6-fluoro-N-(4-(4-(tetrahydro-2H-pyran-4-yl)piperazin-1-yl)pyridin-3-yl)pyrazolo[1,5-a]pyrimidine-3-carboxamide]
0.01 to 1 µM	Nc1nn2cc(F)cnc2c1C(=O)Nc1cnccc1N1CCN([C@H]2CCOC2)CC1 [I-N-12, (S)-2-amino-6-fluoro-N-(4-(4-(tetrahydrofuran-3-yl)piperazin-1-yl)pyridin-3-yl)pyrazolo[1,5-a]pyrimidine-3-carboxamide]
0.01 to 1 µM	CN1CCN(c2c(F)cncc2NC(=O)c2c(N)nn3cc(Cl)cnc23)CC1 [I-N-14, 2-amino-6-chloro-N-(5-fluoro-4-(4-methylpiperazin-1-yl)pyridin-3-yl)pyrazolo[1,5-a]pyrimidine-3-carboxamide]
0.01 to 1 µM	CN1CCN(c2c(F)cncc2NC(=O)c2c(N)nn3cc(F)cnc23)CC1 [I-N-15, 2-amino-6-fluoro-N-(5-fluoro-4-(4-methylpiperazin-1-yl)pyridin-3-yl)pyrazolo[1,5-a]pyrimidine-3-carboxamide]
0.01 to 1 µM	Cc1cncc(NC(=O)c2c(N)nn3cc(F)cnc23)c1N1CCN(C2COC2)CC1 [I-N-16, 2-amino-6-fluoro-N-(5-methyl-4-(4-(oxetan-3-yl)piperazin-1-yl)pyridin-3-yl)pyrazolo[1,5-a]pyrimidine-3-carboxamide]
0.01 to 1 µM	CCN1CCN(c2ccncc2NC(=O)c2c(N)nn3cc(F)cnc23)CC1 [I-N-17, 2-amino-N-(4-(4-ethylpiperazin-1-yl)pyridin-3-yl)-6-fluoropyrazolo[1,5-a]pyrimidine-3-carboxamide]
0.01 to 1 µM	Nc1nn2cc(F)cnc2c1C(=O)Nc1cnccc1N1CCN(CC(F)(F)F)CC1 [I-N-20, 2-amino-6-fluoro-N-(4-(4-(2,2,2-trifluoroethyl)piperazin-1-yl)pyridin-3-yl)pyrazolo[1,5-a]pyrimidine-3-carboxamide]
0.01 to 1 µM	Nc1nn2cc(F)cnc2c1C(=O)Nc1cnccc1N1CCN2CCC[C@H]2C1 [I-N-21, (S)-2-amino-6-fluoro-N-(4-(hexahydropyrrolo[1,2-a]pyrazin-2(1H)-yl)pyridin-3-yl)pyrazolo[1,5-a]pyrimidine-3-carboxamide]
0.01 to 1 µM	COCCN1CCN(c2ccncc2NC(=O)c2c(N)nn3cc(F)cnc23)CC1 [I-N-22, 2-amino-6-fluoro-N-(4-(4-(2-methoxyethyl)piperazin-1-yl)pyridin-3-yl)pyrazolo[1,5-a]pyrimidine-3-carboxamide]
0.01 to 1 µM	C[C@@H]1CN(C2COC2)CCN1c1ccncc1NC(=O)c1c(N)nn2cc(F)cnc12 [I-N-23, (R)-2-amino-6-fluoro-N-(4-(2-methyl-4-(oxetan-3-yl)piperazin-1-yl)pyridin-3-yl)pyrazolo[1,5-a]pyrimidine-3-carboxamide]
0.01 to 1 µM	C[C@H]1CN(C2COC2)CCN1c1ccncc1NC(=O)c1c(N)nn2cc(F)cnc12 [I-N-24, (S)-2-amino-6-fluoro-N-(4-(2-methyl-4-(oxetan-3-yl)piperazin-1-yl)pyridin-3-yl)pyrazolo[1,5-a]pyrimidine-3-carboxamide]
0.01 to 1 µM	CC1(N2CCN(c3ccncc3NC(=O)c3c(N)nn4cc(Cl)cnc34)CC2)COC1 [I-N-25, 2-amino-6-chloro-N-(4-(4-(3-methyloxetan-3-yl)piperazin-1-yl)pyridin-3-yl)pyrazolo[1,5-a]pyrimidine-3-carboxamide]
0.01 to 1 µM	Nc1nn2cc(F)cnc2c1C(=O)Nc1cnccc1-n1cccn1 [I-N-26, N-(4-(1H-pyrazol-1-yl)pyridin-3-yl)-2-amino-6-fluoropyrazolo[1,5-a]pyrimidine-3-carboxamide]
0.01 to 1 µM	Nc1nn2cc(F)cnc2c1C(=O)Nc1cnccc1-n1cnc(C(F)(F)F)c1 [I-N-27, 2-amino-6-fluoro-N-(4-(4-(trifluoromethyl)-1H-imidazol-1-yl)pyridin-3-yl)pyrazolo[1,5-a]pyrimidine-3-carboxamide]
0.01 to 1 µM	Cc1nccn1-c1ccncc1NC(=O)c1c(N)nn2cc(F)cnc12 [I-N-28, 2-amino-6-fluoro-N-(4-(2-methyl-1H-imidazol-1-yl)pyridin-3-yl)pyrazolo[1,5-a]pyrimidine-3-carboxamide]
0.01 to 1 µM	Nc1nn2cc(Cl)cnc2c1C(=O)Nc1cnccc1-n1ccnc1 [I-N-29, N-(4-(1H-imidazol-1-yl)pyridin-3-yl)-2-amino-6-chloropyrazolo[1,5-a]pyrimidine-3-carboxamide]
0.01 to 1 µM	Cc1nc(C(F)(F)F)cn1-c1ccncc1NC(=O)c1c(N)nn2cc(F)cnc12 [I-N-30, 2-amino-6-fluoro-N-(4-(2-methyl-4-(trifluoromethyl)-1H-imidazol-1-yl)pyridin-3-yl)pyrazolo[1,5-a]pyrimidine-3-carboxamide]
1 to 5 µM	Nc1nn2cc(F)cnc2c1C(=O)Nc1cnccc1N1CCN(C2COC2)C2CC21 (centres unmarked) [I-N-31, 2-amino-6-fluoro-N-(4-(5-(oxetan-3-yl)-2,5-diazabicyclo[4.1.0]heptan-2-yl)pyridin-3-yl)pyrazolo[1,5-a]pyrimidine-3-carboxamide]
0.01 to 1 µM	Nc1nn2cc(F)cnc2c1C(=O)Nc1cncc(C2CC2)c1N1CCN(C2COC2)CC1 [I-N-32, 2-amino-N-(5-cyclopropyl-4-(4-(oxetan-3-yl)piperazin-1-yl)pyridin-3-yl)-6-fluoropyrazolo[1,5-a]pyrimidine-3-carboxamide]
0.01 to 1 µM	Nc1nn2cc(F)cnc2c1C(=O)Nc1cnccc1N1CCN(C2CC2)CC1 [I-N-33, 2-amino-N-(4-(4-cyclopropylpiperazin-1-yl)pyridin-3-yl)-6-fluoropyrazolo[1,5-a]pyrimidine-3-carboxamide]

SMILES	Ki
Nc1nn2cc(F)cnc2c1C(=O)Nc1cnccc1N1CCN2CCC1CC2 [I-N-18, N-(4-(1,4-diazabicyclo[3.2.2]nonan-4-yl)pyridin-3-yl)-2-amino-6-fluoropyrazolo[1,5-a]pyrimidine-3-carboxamide]	0.01 to 1 µM
